Reference: PubChem BioAssay AID651988 (The Scripps Research Institute Molecular Screening Center, 2013)
Activity calls are given as the source filed them.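 How the source made its calls: active means inhibition of 50% or more at 300 nM in exactly one of the two enzyme panels, LYPLA1 or LYPLA2; inactive means under 50% in both panels, or reaching 50% in both.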

Key:
[1] = target: Acyl-protein thioesterase 2 (Homo sapiens) (UniProt O95372); assay: LYPLA1 and LYPLA2 inhibitors in proteome, late-stage follow-up, selectivity assay for LYPLA1/LYPLA2 inhibitor project, cell lysate, gel-based ABPP, fluorescence, HEK293T proteome, powder samples (AID 651988); settings: HEK293T soluble proteome, FP-PEG-Rh fluorescence, LYPLA2, at 10 µM, hits give high values
[2] = target: Acyl-protein thioesterase 1 (Homo sapiens) (UniProt O75608); assay: as above; settings: HEK293T soluble proteome, FP-PEG-Rh fluorescence, LYPLA1, at 10 µM, hits give high values
Chain of Acyl-protein thioesterase 1 (Homo sapiens) (O75608 whole entry, looked up): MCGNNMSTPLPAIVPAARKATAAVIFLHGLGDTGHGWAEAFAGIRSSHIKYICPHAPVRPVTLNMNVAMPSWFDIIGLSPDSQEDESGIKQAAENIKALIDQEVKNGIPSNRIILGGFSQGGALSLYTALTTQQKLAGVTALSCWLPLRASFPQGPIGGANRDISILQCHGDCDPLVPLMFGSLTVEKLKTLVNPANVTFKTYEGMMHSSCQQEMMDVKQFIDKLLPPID

Chain of Acyl-protein thioesterase 2 (Homo sapiens) (O95372 whole entry, looked up): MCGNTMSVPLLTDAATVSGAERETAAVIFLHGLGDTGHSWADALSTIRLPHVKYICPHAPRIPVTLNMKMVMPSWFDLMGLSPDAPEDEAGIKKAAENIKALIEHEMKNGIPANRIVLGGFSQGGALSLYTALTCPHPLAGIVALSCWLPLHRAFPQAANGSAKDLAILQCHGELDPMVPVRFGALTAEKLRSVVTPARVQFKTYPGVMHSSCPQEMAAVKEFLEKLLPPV

Compound: O=C(CN1CCN(C(=O)c2ccco2)CC1)Nc1cc(Cl)ccc1Cl
- inhibition [1]: 25% (inactive)
- inhibition [2]: 100%

Compound: O=C(c1cc2c(s1)-c1ccccc1S(=O)(=O)C2)N1CCN(c2ccccc2)CC1
- inhibition [1]: 75% (inactive)
- inhibition [2]: 0% (inactive)

Compound: O=C(CN1CCN(C(=O)c2ccco2)CC1)Nc1cccc(Cl)c1Cl
- inhibition [1]: 0% (inactive)
- inhibition [2]: 0% (inactive)

Compound: CC(C(=O)Nc1cccc(C(F)(F)F)c1)N1CCN(C(=O)c2ccco2)CC1 (configuration not stated)
- inhibition [1]: 0% (inactive)
- inhibition [2]: 0% (inactive)

Compound: O=C(c1cc2c(s1)-c1ccc(Cl)cc1S(=O)(=O)C2)N1CCN(c2ccccn2)CC1
- inhibition [1]: 0% (inactive)
- inhibition [2]: 0% (inactive)

Compound: COc1ccc(N2CCN(C(=O)c3ccc(C(C)(C)C)cc3)CC2)cc1
- inhibition [1]: 75% (inactive)
- inhibition [2]: 0% (inactive)

Compound: O=C(Nc1ccc(N2CCN(C(=O)c3ccco3)CC2)c(Cl)c1)c1c(F)c(F)c(F)c(F)c1F
- inhibition [1]: 50% (inactive)
- inhibition [2]: 75% (inactive)

Compound: O=C(c1cc2c(s1)-c1ccc(Cl)cc1S(=O)(=O)C2)N1CCN(c2ncccn2)CC1
- inhibition [1]: 75% (inactive)
- inhibition [2]: 0% (inactive)

Compound: CC1CCc2c(sc(NC(=O)CN3CCN(C(=O)c4ccco4)CC3)c2C#N)C1 (configuration not stated)
- inhibition [1]: 0% (inactive)
- inhibition [2]: 0% (inactive)

Compound: COc1ccccc1N1CCN(C(=O)c2cc3c(s2)-c2ccccc2S(=O)(=O)C3)CC1
- inhibition [1]: 0% (inactive)
- inhibition [2]: 0% (inactive)

Compound: O=C(c1ccco1)N1CCN(C(=S)Nc2ccc(F)c(Cl)c2)CC1
- inhibition [1]: 50% (inactive)
- inhibition [2]: 100% (inactive)

Compound: COc1ccc(N2CCN(C(=O)c3cc4c(s3)CCCCC4)CC2)cc1
- inhibition [1]: 100% (inactive)
- inhibition [2]: 0% (inactive)

Compound: O=C(c1cc2c(s1)-c1ccccc1S(=O)(=O)C2)N1CCN(c2cccc(Cl)c2)CC1
- inhibition [1]: 0% (inactive)
- inhibition [2]: 0% (inactive)

Compound: O=C(c1cc2c(s1)-c1ccccc1S(=O)(=O)C2)N1CCN(c2ccc(Cl)cc2)CC1
- inhibition [1]: 100% (inactive)
- inhibition [2]: 0% (inactive)

Compound: O=C(CN1CCN(C(=O)c2ccco2)CC1)Nc1ccc(Br)cc1Cl
- inhibition [1]: 50% (inactive)
- inhibition [2]: 50% (inactive)

Compound: O=C(c1cc2c(s1)-c1ccccc1S(=O)(=O)C2)N1CCN(C2CCCCC2)CC1
- inhibition [1]: 25% (inactive)
- inhibition [2]: 0% (inactive)

Compound: O=C(CN1CCN(C(=O)c2ccco2)CC1)Nc1ccc(Cl)cc1Cl
- inhibition [1]: 50% (inactive)
- inhibition [2]: 50% (inactive)

Compound: O=C(c1cc2c(s1)-c1ccccc1S(=O)(=O)C2)N1CCN(Cc2ccccc2)CC1
- inhibition [1]: 50% (inactive)
- inhibition [2]: 0% (inactive)

Compound: Cc1nnsc1C(=O)N1CCCC(N2CCN(c3cccc(C(F)(F)F)c3)CC2)C1 (configuration not stated)
- inhibition [1]: 0% (inactive)
- inhibition [2]: 0% (inactive)

Compound: O=C(CN1CCN(C(=O)c2ccco2)CC1)Nc1cc(C(F)(F)F)ccc1Cl
- inhibition [1]: 25% (inactive)
- inhibition [2]: 100%

Compound: O=C(COc1ccc(Cl)cc1)N1CCN(c2cccc(C(F)(F)F)c2)CC1
- inhibition [1]: 0% (inactive)
- inhibition [2]: 25% (inactive)

Compound: O=C(c1ccco1)N1CCN(C(=S)Nc2cccc([N+](=O)[O-])c2)CC1
- inhibition [1]: 0% (inactive)
- inhibition [2]: 0% (inactive)

Compound: O=C(CN1CCN(C(=O)c2ccccc2)CC1)Nc1cc(S(=O)(=O)N2CCCC2)ccc1Cl
- inhibition [1]: 0% (inactive)
- inhibition [2]: 75% (inactive)

Compound: CCOC(=O)N1CCN(C(=O)c2cc3c(s2)-c2ccc(Cl)cc2S(=O)(=O)C3)CC1
- inhibition [1]: 0% (inactive)
- inhibition [2]: 0% (inactive)

Compound: O=C(c1cc2c(s1)-c1ccc(Cl)cc1S(=O)(=O)C2)N1CCN(C2CCCCC2)CC1
- inhibition [1]: 75% (inactive)
- inhibition [2]: 0% (inactive)

Compound: COc1ccc(N2CCN(C(=O)c3cc4c(s3)-c3ccccc3S(=O)(=O)C4)CC2)cc1
- inhibition [1]: 100%
- inhibition [2]: 0% (inactive)
